# Key:
# Assay type in all cases: cell-based
# NOX2 [1] = target: T1, NOX2 (Mus musculus, UniProt Q61093); test: NOX2 activity in primary mouse neutrophils enriched from bone marrow; conditions: SD, n = 8 mice
# T1 construct: relative potencies in primary mouse neutrophils enriched from bone marrow; endogenous in cells; host or cells: primary mouse bone-marrow granulocytes
# T1 sequence (Q61093 2-570 limits assumed): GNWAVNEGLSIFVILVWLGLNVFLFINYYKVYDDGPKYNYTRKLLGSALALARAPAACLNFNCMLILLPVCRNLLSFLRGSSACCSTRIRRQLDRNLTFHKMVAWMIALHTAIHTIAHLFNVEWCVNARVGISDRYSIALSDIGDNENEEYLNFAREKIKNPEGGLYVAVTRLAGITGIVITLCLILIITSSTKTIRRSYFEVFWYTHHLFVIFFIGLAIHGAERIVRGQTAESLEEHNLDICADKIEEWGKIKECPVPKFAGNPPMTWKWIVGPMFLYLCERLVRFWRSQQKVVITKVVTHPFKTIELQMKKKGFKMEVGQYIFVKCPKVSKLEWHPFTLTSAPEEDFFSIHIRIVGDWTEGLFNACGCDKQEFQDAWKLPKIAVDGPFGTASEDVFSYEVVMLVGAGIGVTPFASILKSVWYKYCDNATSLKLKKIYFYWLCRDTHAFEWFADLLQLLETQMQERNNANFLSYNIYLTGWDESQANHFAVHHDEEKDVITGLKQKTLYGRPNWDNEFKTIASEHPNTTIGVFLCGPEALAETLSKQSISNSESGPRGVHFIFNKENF
# T1 sequence (Q61462 2-192 partner limits assumed): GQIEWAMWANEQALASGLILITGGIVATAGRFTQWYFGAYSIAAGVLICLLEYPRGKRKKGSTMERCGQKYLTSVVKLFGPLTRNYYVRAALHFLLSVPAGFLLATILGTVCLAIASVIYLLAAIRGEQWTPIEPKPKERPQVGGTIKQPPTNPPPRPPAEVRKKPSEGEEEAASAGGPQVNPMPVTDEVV
# Procedure: Human blood was obtained after informed consent by the Department of Transfusion Medicine (NIH Clinical Center) and provided as de-identified specimens. Human granulocytes were isolated using Percoll density fractionation as described and NOX2 activity was assessed in white polypropylene flat bottom 96 well plates following 15 min of preincubation at 37 °C with compounds or vehicle controls using 50 μM luminol as a chemiluminescence enhancer in an assay volume of 100 μl RPMI1640 with 1.1 × 10^5 cells/well in Varioskan Lux luminometer for 30 cycles of 1 s per well (approximately 1 h).
# Mouse granulocytes were isolated from bone marrow essentially as described except bones were not sterilized in ethanol and marrow was not flushed through a 100 μm strainer. Furthermore, RPMI1640 was supplemented with 10% FBS, 2 mM EDTA, and 25 mM HEPES buffer and penicillin/streptomycin was omitted. Polymorphonuclear leukocytes (PMN) concentration and purity (>90% granulocytes) were assessed microscopically using 3% acetic acid and a hemacytometer. NOX2 activity was assessed as described above with human granulocytes.
# NOX2 [2] = target: T2, NOX2 (Homo sapiens, UniProt P04839); test: Expi293 whole cell assay, NOX2 overexpression; conditions: Expi293 cells expressing NOX2
# T2 sequence (P04839 2-570 limits assumed): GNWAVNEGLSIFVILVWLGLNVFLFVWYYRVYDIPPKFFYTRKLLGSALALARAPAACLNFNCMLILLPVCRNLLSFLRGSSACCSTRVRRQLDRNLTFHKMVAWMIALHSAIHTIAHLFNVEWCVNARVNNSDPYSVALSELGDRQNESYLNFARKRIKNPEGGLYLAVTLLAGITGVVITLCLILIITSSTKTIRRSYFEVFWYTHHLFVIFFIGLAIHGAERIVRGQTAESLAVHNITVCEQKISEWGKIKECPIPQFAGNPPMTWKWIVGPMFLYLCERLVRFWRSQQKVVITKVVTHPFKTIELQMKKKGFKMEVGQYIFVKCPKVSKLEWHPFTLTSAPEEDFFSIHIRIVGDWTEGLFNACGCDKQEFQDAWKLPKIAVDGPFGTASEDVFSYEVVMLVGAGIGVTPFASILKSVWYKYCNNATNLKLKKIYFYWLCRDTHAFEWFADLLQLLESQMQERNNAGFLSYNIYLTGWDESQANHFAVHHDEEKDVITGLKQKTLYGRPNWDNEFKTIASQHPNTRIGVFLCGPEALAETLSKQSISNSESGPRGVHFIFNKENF
# T2 sequence (P13498 2-195 partner limits assumed): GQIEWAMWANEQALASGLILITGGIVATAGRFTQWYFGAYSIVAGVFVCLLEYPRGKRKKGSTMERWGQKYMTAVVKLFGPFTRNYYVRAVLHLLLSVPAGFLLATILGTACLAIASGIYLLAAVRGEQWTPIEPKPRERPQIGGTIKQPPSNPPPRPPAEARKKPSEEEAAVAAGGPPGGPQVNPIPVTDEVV
# Procedure: Given concerns about previous assays for specific NOX family members [45] we here report the first use of the Expi293 Expression System (Thermo Scientific) to overexpress NOX1, 2, 3, 4, and 5 in excess of any endogenous NOX proteins present in these cells. Transfections were performed following the manufacturer's instructions using the plasmids for each NOX as described in Supplemental Table 2 except that the enhancer solution provided with the Expi293 system was not used because it promoted enzyme activation.
# After the times indicated in Supplemental Table 2, cells were washed and 50,000 added per well of a white 96-well plate (Greiner) along with 50 μM Luminol and 2.5 U horseradish peroxidase/mL in a volume of 90 μl for NOX1, NOX2, and NOX5. Inhibitors or vehicle controls were added and cells were incubated for 20 min at 37 °C prior to activation with the indicated stimuli. […] Chemiluminescence was measured every 2 min for 1 s per well at 37 °C in a Varioscan Multimode reader. AUC data were analyzed using GraphPad Prism using non-linear regression analysis after expressing relative to control alone (maximum ROS production).
# NOX1 = target: T3, NOX1 (Homo sapiens, UniProt Q9Y5S8); test: Expi293 whole cell assay, NOX1 overexpression; conditions: highest dose about 100x the IC50 versus NOX2
# T3 construct: expressed in transfected cells; host or cells: Expi293 (human embryonic kidney) cells, transient transfection
# T3 sequence (Q9Y5S8 1-564): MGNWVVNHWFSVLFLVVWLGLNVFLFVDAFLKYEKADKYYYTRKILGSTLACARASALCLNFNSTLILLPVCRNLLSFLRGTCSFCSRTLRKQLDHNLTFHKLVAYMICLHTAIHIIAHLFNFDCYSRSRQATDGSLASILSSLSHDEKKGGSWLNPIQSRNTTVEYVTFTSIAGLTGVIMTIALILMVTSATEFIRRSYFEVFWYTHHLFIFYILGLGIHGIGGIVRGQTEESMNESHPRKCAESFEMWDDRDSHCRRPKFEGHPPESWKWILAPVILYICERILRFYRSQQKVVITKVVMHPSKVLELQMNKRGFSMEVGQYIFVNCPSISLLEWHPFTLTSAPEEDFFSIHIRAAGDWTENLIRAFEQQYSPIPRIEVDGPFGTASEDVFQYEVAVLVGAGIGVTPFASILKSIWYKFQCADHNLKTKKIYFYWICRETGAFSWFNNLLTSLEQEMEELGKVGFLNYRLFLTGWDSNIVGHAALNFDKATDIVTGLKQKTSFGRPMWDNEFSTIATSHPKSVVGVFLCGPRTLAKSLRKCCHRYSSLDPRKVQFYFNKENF
# T3 sequence (P13498 2-195 partner limits assumed): T2 sequence (P13498 2-195 partner limits assumed)
# Procedure: Given concerns about previous assays for specific NOX family members we here report the first use of the Expi293 Expression System (Thermo Scientific) to overexpress NOX1, 2, 3, 4, and 5 in excess of any endogenous NOX proteins present in these cells. Transfections were performed following the manufacturer's instructions using the plasmids for each NOX as described in Supplemental Table 2 except that the enhancer solution provided with the Expi293 system was not used because it promoted enzyme activation.
# After the times indicated in Supplemental Table 2, cells were washed and 50,000 added per well of a white 96-well plate (Greiner) along with 50 μM Luminol and 2.5 U horseradish peroxidase/mL in a volume of 90 μl for NOX1, NOX2, and NOX5. Inhibitors or vehicle controls were added and cells were incubated for 20 min at 37 °C prior to activation with the indicated stimuli. For NOX3 and NOX4 (constitutively active), cells were incubated with inhibitor or vehicle control prior to the addition of luminol and HRP. Chemiluminescence was measured every 2 min for 1 s per well at 37 °C in a Varioscan Multimode reader. AUC data were analyzed using GraphPad Prism using non-linear regression analysis after expressing relative to control alone (maximum ROS production).
compound,measurement,setting,value
"Cn1ccc(S(=O)(=O)Nc2ccnc3c2c(-c2ccc4ccn(C)c4c2)cn3C2CC2)n1 [NCATS-SM7270, N-(1-cyclopropyl-3-(1-methyl-1H-indol-6-yl)-1H-pyrrolo [2,3-b]pyridin-4-yl)-1-methyl-1H-pyrazole-3-sulfonamide]",IC50,NOX2 [1],4.28 ± 1.05 µM
same,improvement in potency toward NOX2 compared with GSK2795039,NOX2 [2],2 fold
same,activity against NOX1,NOX1,only marginal activity at the highest dose tested
